This passage reports MIC and logP results from ChEMBL document CHEMBL1149509, “Search of antitubercular activities in tetrahydroacridines: synthesis and biological evaluation” (Bioorg Med Chem Lett, 2006).

As a reminder, the MIC is the least concentration at which growth counts as inhibited. In general, logP refers to the decadic logarithm of the partition coefficient of the neutral form, usually between octanol and water.

The test system of series [1] is Mycobacterium tuberculosis. The series can be described thus: Antitubercular activity against Mycobacterium tuberculosis H37Ra. It counts as functional.
The subject of series [2] is Mycobacterium tuberculosis. The series can be described thus: Antitubercular activity against Mycobacterium tuberculosis H37Rv. It counts as functional.
Series [3] can be described thus: Partition coefficient, log P of the compound. It counts as physicochemical. The conditions noted are these: octanol/water.

≈ marks a conversion by molar mass, not a printed value.

As for `c1ccc2c(NCCCCCCCCCCNc3c4c(nc5ccccc35)CCCC4)c3c(nc2c1)CCCC3`, the minimal inhibitory concentration (MIC) in series [1] was 3.12 µg/mL (≈ 5.83 µM); in series [2], 12.5 µg/mL (≈ 23.4 µM). The same molecule displayed a logP in series [3] of 9.24.

As to `COc1ccc(Nc2c3c(nc4ccccc24)CCCC3)cc1`, the minimum inhibitory concentration (MIC) in series [1] was > 25 µg/mL; in series [2], > 12.5 µg/mL. In addition, the logP in series [3] (read-out: LogP) came out at 5.05.

For `OCCNc1c2c(nc3ccccc13)CCCC2`, the MIC in series [1] was > 25 µg/mL; in series [2], 12.5 µg/mL (≈ 51.6 µM). In series [3] (read-out: LogP), the logP was 2.69.

Consider `Clc1cccc(CCNc2c3c(nc4ccccc24)CCCC3)c1`, for which the figures for the MIC in series [1] and in series [2] were 25 µg/mL (≈ 74.2 µM) and > 12.5 µg/mL, respectively. Also, in series [3] (read-out: LogP), the logP was determined as 5.78.

For the molecule `c1ccc2c(NCCCCCCCNc3c4c(nc5ccccc35)CCCC4)c3c(nc2c1)CCCC3`, the MIC in series [1] is 6.25 µg/mL (≈ 12.7 µM); in series [2] it was 12.5 µg/mL (≈ 25.4 µM). In series [3] (read-out: LogP), the log partition coefficient (logP) was determined as 7.99.

As for `Clc1ccc(Oc2c3c(nc4ccccc24)CCCC3)cc1`, the minimal inhibitory concentration (MIC) was > 25 µg/mL in series [1] and > 12.5 µg/mL in series [2]. The logP in series [3] (read-out: LogP) was found to be 5.81.

In series [2], `CC[C@@H](CO)NCCN[C@@H](CC)CO` [ETHAMBUTOL] yielded an MIC of 3.25 µg/mL (≈ 15.9 µM).

For `CCCCCCCCNc1c2c(nc3ccccc13)CCCC2`, the minimal inhibitory concentration (MIC) came to 1.56 µg/mL (≈ 5.02 µM) in series [1] and 3.12 µg/mL (≈ 10 µM) in series [2]. In series [3] (read-out: LogP), the logP amounted to 6.12.

For `Fc1ccc(Oc2c3c(nc4ccccc24)CCCC3)cc1`, the values for the minimum inhibitory concentration (MIC) in series [1] and in series [2] were > 25 µg/mL and > 12.5 µg/mL, respectively. Moreover, in series [3] (read-out: LogP), the logP was 5.41.

Consider `c1ccc(Sc2c3c(nc4ccccc24)CCCC3)cc1`, for which the MIC in series [1] was > 25 µg/mL; in series [2], > 12.5 µg/mL. Further, in series [3] (read-out: LogP), the log partition coefficient (logP) amounted to 5.82.

With `CCCCCCCCCCCCNc1c2c(nc3ccccc13)CCCC2`, the values for the minimum inhibitory concentration (MIC) in series [1] and in series [2] were 6.25 µg/mL (≈ 17 µM) and 0.78 µg/mL (≈ 2.13 µM), respectively. In addition, in series [3] (read-out: LogP), the logP turned out to be 7.79.

In the case of `c1ccc2c(N3CCOCC3)c3c(cc2c1)CCCC3`, the minimum inhibitory concentration (MIC) was > 25 µg/mL in series [1] and 12.5 µg/mL (≈ 46.8 µM) in series [2]. In series [3] (read-out: LogP), the log partition coefficient (logP) amounted to 3.6.

As to `c1ccc2c(NCCCCCNc3c4c(nc5ccccc35)CCCC4)c3c(nc2c1)CCCC3`, the results for the MIC in series [1] and in series [2] were 25 µg/mL (≈ 53.8 µM) and 12.5 µg/mL (≈ 26.9 µM), respectively. Moreover, the logP in series [3] (read-out: LogP) came to 7.15.

With `Clc1ccc(Oc2c3c(nc4ccccc24)CCCC3)c(Cl)c1`, the values for the minimum inhibitory concentration (MIC) in series [1] and in series [2] were > 25 µg/mL and > 12.5 µg/mL, respectively. Also, the lipophilicity (logP) in series [3] (read-out: LogP) came to 6.37.

For `c1ccc(CNc2c3c(nc4ccccc24)CCCC3)cc1`, the MIC is 25 µg/mL (≈ 86.7 µM) in series [1] and > 12.5 µg/mL in series [2]. Moreover, the logP in series [3] (read-out: LogP) came out at 4.94.

In series [2], `CO[C@H]1/C=C/O[C@@]2(C)Oc3c(C)c(O)c4c(O)c(c(/C=N/N5CCN(C)CC5)c(O)c4c3C2=O)NC(=O)/C(C)=C\C=C\[C@H](C)[C@H](O)[C@@H](C)[C@@H](O)[C@@H](C)[C@H](OC(C)=O)[C@@H]1C` [RIFAMPIN] registered a minimal inhibitory concentration (MIC) of 0.75 µg/mL (≈ 0.911 µM).

In the case of `Cc1ccc(Oc2c3c(nc4ccccc24)CCCC3)cc1C`, the MIC in series [1] is > 25 µg/mL; in series [2] it was > 12.5 µg/mL. Moreover, the logP in series [3] (read-out: LogP) is 6.23.

On to `NNC(=O)c1ccncc1` [ISONIAZID], for which, in series [2], the minimal inhibitory concentration (MIC) is 0.65 µg/mL (≈ 4.74 µM).

On to `CCCCCCNc1c2c(nc3ccccc13)CCCC2`, for which the MIC in series [1] and in series [2] was 6.25 µg/mL (≈ 22.1 µM) each time. Moreover, the logP in series [3] (read-out: LogP) was determined as 5.29.

For `C=CCc1ccc(Oc2c3c(nc4ccccc24)CCCC3)c(OC)c1`, the values for the MIC in series [1] and in series [2] were 25 µg/mL (≈ 72.4 µM) and > 12.5 µg/mL, respectively. For the same molecule, the logP in series [3] (read-out: LogP) was found to be 6.18.
